Results: patent publication US20030109523A1, “Bicyclic antagonists selective for the alphavbeta3 integrin” (Wyeth, priority 1999, published 2003)

What was measured:
[1] = molecular target: T1, Vitronectin Receptor (αVβ3) (Homo sapiens, UniProt P05106+P06756); test: Vitronectin Receptor (αVβ3) Binding Test Procedure; details: for IC50: read-out: (αVβ3) IC50 RECEPTOR BINDING
T1 construct: expressed in transfected cells; host or cells: 512P5 cells (plasma membrane preparation)

[2] = molecular target: T2, αVβ3 integrin (Homo sapiens, UniProt P05106+P06756); test: Osteopontin-αVβ3 Cell Attachment Test Procedure; type: cell-based; details: for remaining activity at 100 µM / remaining activity at 20 µM: % of maximal attachment, read-out: (αVβ3) CELL ATTACHMENT, % @ concentration; for IC50: attachment of cells to osteopontin, read-out: (αVβ3) IC50 CELL ATTACHMENT
T2 construct: αVβ3-expressing cell lines are maintained by standard tissue culture techniques; endogenous in cells; host or cells: αVβ3-expressing cell lines
Method: Osteopontin-αVβ3 Cell Attachment Test Procedure
Measuring the effect of compounds on the RGD-dependent attachment of cells to osteopontin mediated by the αVβ3 integrin.
Following incubation the wells were aspirated and washed once with D-PBS; plates can either be used immediately or stored for up to 1 week at 4° C. Prior to assay, the wells were blocked with 1% bovine serum albumin (BSA) in cell suspension media for 1 hour at 37° C. Following the blocking period, wells were aspirated and washed once with D-PBS.
αVβ3-expressing cell lines are maintained by standard tissue culture techniques. […] The cells were pelleted by low-speed centrifugation and washed three times with 0.5 mg/mL trypsin inhibitor in D-PBS (Sigma). The final cell pellet was resuspended in cell suspension media at a concentration of 10^6 cells/mL.
Incubation: 100 μL of diluted test compound was added to osteopontin-coated wells (in triplicate) followed by 100 μL of cell suspension; background cell attachment was determined in uncoated wells. The plate was incubated at 25° C. in a humidified air atmosphere for 1.5 hours. Following the incubation period, the wells were gently aspirated and washed once with D-PBS.
Cell Number Detection: The number of cells attached was determined by an MTT dye conversion assay (Promega) according to the manufacturer's instructions. Briefly, MTT dye was diluted in cell suspension media (15:85) and 100 μL was added to each well. […] The assay plates were covered and incubated at 37° C. in a humidified air atmosphere overnight.
The individual well optical density was expressed as a percentage of the maximal attachment (% Max) wells minus background attachment, and reported as the mean ±standard deviation.

[3] = tested on: osteoclasts; test: Osteoclast Bone Pitting; type: cell-based, rat; details: Rattus norvegicus, Osteoclast
Method: Osteoclast Bone Pitting The test procedure was conducted as described by R. J. Murrills and D. W. […] At this pH the adherent osteoclasts excavate an adequate number of resorption pits for assay purposes. Slices were fixed in 2.5% glutaraldehyde and osteoclasts counted following tartrate-resistant acid phosphatase staining. […] All cells were stripped from the slice by sonication on 0.25M NH4OH and the resorption pits formed by the osteoclasts during the experiment stained with toluidine blue. Resorption pits were quantified by manually counting. The experiments were conducted according to a block design with osteoclasts from each animal exposed to each treatment. Three replicate slices were used per treatment per animal, such that a total of 96 slices were examined for an experiment involving four animals and eight treatments (including control). Several parameters were recorded on a “per slice” basis: number of pits, number of osteoclasts, number of pits per osteoclast, number of fibroblast-like bone cells. SAS or JMP statistical software were used for statistical analysis. […] IC50s were calculated using dose-response curves.

[4] = molecular target: T3, αIIbβ3 integrin (Homo sapiens, UniProt P05106+P08514); test: ADP-Induced Platelet Aggregation; type: cell-based; details: Table VII; for remaining activity at 200 µM: percent of maximal aggregation; for IC50: ADP 20 uM, human platelets, read-out: Platelet Aggregation αIIbβ3 IC50
T3 construct: Human Platelets: Platelet-enriched plasma was obtained commercially from a donor pool; from tissue; host or cells: human platelet-rich plasma from a commercial donor pool
Method: Measurement of the Effect of Compounds on ADP-Induced Platelet Aggregation
Measuring the effect of compounds on ADP-induced platelet aggregation mediated by a fibrinogen-αIIbβ3 integrin interaction.
Human Platelets: Platelet-enriched plasma was obtained commercially from a donor pool. The plasma was tested prior to shipment and found to be negative for HIV, HCV and Hepatitis B. Platelet-rich plasma (PRP) was obtained by diluting plasma to an approximate final concentration of 3×10(6) platelets per mL in platelet poor plasma (PPP). PPP was the supernatant of a lowspeed centrifugation of plasma.
Adenosine diphosphate (ADP): ADP was obtained commercially and diluted to 1 mM (stock solution) in distilled, deionized water (ddH2O).
Incubation: PRP and PPP were prewarmed in a water bath at 37° C. […] PRP plus sample compound in a final volume of 500 uL was added to a pre-warmed cuvette in a ChronoLog aggregometer. A control containing PRP and 5 uL of vehicle was treated similarly to the test cuvette; final vehicle concentration was 1%. The two cuvettes were incubated with stirring (1000 rpm) at 37° C. for 5 minutes. Five hundred microliters of PPP was used as a reference (100% aggregation).
Aggregation: To begin the test, ADP was added yielding a final concentration of 20 uM to both samples (plus and minus sample compound). Light transmittance was monitored continuously and compared to the reference cuvette. After five minutes, the test was terminated and the slope and maximal amplitude of the resulting aggregation plot was calculated by the aggregometer.
The percent of maximal aggregation is the ratio of the maximal aggregations of the sample cuvette to the control multiplied by 100 (% Max) and reported as the mean+−standard deviation.

[5] = % Max = percentage of the specific binding, read-out: (αVβ3) RECEPTOR BINDING, % @ concentration

T3 sequence (P08514 32-887 limits assumed): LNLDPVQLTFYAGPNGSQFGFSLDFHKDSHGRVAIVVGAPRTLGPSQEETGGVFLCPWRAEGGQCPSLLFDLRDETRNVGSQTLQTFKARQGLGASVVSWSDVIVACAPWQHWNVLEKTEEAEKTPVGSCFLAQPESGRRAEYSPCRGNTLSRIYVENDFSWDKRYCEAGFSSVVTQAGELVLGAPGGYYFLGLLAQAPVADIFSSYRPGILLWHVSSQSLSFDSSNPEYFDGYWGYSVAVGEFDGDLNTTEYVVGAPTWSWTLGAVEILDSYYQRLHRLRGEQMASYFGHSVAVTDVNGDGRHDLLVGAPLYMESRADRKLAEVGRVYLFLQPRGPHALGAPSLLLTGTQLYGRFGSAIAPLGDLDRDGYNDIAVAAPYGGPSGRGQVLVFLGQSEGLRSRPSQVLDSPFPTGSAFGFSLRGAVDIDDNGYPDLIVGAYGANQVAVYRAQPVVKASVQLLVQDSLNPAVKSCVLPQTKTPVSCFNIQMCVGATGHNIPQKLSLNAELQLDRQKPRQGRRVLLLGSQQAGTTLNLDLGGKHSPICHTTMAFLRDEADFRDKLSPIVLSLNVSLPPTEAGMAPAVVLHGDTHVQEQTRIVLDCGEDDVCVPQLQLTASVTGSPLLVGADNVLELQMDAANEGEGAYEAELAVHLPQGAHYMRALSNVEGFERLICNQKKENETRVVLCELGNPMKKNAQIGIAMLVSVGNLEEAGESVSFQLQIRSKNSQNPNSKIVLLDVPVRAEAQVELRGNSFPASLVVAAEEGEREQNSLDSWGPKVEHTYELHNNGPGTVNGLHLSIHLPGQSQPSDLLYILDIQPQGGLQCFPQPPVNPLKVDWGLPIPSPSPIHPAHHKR
T3 sequence (P08514 891-1039 partner limits assumed): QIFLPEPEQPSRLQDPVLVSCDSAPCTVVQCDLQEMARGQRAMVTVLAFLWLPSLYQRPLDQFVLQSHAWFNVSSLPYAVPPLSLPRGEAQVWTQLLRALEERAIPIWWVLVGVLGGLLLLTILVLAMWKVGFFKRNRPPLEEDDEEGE
T3 sequence (P05106 27-788): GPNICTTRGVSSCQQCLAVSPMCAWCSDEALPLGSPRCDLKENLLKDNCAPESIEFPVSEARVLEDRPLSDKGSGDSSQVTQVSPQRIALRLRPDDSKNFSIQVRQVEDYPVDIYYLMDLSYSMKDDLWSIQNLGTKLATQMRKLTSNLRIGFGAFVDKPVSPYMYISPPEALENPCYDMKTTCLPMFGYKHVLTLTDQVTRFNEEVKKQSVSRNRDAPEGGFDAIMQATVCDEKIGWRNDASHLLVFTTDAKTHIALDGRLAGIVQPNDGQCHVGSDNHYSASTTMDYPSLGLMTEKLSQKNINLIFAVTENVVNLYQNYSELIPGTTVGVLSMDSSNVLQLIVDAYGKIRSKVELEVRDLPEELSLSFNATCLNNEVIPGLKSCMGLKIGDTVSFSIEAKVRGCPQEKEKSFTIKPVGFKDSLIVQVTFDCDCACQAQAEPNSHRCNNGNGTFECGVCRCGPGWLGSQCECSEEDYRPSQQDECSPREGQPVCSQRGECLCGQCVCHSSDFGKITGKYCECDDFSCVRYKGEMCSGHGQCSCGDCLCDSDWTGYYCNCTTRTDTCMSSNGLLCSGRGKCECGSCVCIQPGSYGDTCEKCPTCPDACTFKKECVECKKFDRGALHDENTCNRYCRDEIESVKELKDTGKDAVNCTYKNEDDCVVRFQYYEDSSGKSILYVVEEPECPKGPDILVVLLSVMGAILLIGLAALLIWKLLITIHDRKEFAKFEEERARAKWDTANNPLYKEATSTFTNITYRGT
T2 sequence (P06756 31-889 limits assumed): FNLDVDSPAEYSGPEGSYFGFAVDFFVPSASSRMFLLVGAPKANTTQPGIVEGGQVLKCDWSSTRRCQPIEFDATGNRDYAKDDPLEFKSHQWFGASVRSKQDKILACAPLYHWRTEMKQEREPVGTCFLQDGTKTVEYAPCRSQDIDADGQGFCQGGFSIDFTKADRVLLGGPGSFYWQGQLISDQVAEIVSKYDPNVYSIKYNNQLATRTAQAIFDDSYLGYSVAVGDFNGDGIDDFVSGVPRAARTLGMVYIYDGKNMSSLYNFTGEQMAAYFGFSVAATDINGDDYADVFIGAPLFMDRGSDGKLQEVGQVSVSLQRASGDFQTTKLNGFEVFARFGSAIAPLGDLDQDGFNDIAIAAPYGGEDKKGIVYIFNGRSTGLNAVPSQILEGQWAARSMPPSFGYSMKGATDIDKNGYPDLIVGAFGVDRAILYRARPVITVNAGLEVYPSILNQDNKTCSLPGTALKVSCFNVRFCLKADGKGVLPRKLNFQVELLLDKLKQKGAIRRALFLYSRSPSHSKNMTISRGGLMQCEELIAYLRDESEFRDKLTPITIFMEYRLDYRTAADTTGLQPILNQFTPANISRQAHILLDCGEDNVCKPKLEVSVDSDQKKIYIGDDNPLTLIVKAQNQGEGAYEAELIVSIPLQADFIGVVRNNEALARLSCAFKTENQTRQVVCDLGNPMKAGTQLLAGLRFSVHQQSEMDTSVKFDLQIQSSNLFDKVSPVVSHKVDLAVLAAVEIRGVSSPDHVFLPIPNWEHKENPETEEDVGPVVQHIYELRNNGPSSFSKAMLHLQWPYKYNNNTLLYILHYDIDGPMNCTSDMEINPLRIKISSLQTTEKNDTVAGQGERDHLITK
T2 sequence (P06756 891-1048 partner limits assumed): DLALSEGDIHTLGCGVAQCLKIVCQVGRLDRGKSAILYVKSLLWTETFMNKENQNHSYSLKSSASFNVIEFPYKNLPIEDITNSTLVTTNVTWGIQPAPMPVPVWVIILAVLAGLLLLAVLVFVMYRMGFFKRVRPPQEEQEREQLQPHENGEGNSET
T2 sequence (P05106 27-788): as the sequence (P05106 27-788) above
T1 sequence (P06756 31-889 limits assumed): as the sequence (P06756 31-889 limits assumed) above
T1 sequence (P06756 891-1048 partner limits assumed): as the sequence (P06756 891-1048 partner limits assumed) above
T1 sequence (P05106 27-788): as the sequence (P05106 27-788) above

| Compound | remaining activity at 30 µM [1, 5] | remaining activity at 100 µM [2] | remaining activity at 200 µM [4] | melting point | IC50 [1] | IC50 [2] | IC50 [4] | other results |
| --- | --- | --- | --- | --- | --- | --- | --- | --- |
| N=C(N)NCCCOc1cccc2c1NC(=O)C(CC(=O)O)C2 (stereo not shown) [Example 234, [8-(3-Guanidino-propoxy)-2-oxo-1,2,3,4-tetrahydro-quinolin-3-yl]-acetic Acid] | 100% | 85% | 74.3% | 151 to 155 °C |  |  |  | inhibition at 230 µM [3]: 8% |
| N=C(N)NCCCCCc1ccc2c(c1)NC(=O)C(CC(=O)O)C2.O=C(O)C(F)(F)F (stereo not shown) [Example 122, [7-(5-Guanidino-pentyl)-2-oxo-1,2,3,4-tetrahydro-quinolin-3-yl]-acetic Acid Trifluoroacetate] |  |  |  | 148 to 151 °C | 3.6 µM | 8.3 µM | 57 µM | IC50 ([3]; read-out: BONE PITTING INHIBITION IC50): 159 µM |
| N=C(N)NCCCOc1ccc2c(c1)CC(CCC(=O)O)C(=O)N2 (stereo not shown) [Example 223, 3-[6-(3-Guanidino-propoxy)-2-oxo-1,2,3,4-tetrahydro-quinolin-3-yl]-propionic Acid] | 100% | 108% |  | 168 to 172 °C |  |  | 54 µM | remaining activity at 20 µM [2]: 104%; inhibition at 226 µM ([3]; @ 226 μM): -72% |
| N=C(N)NCCCOc1ccc2[nH]c(=O)c(CC(=O)O)cc2c1 [Example 237, [6-(3-Guanidino-propoxy)-2-oxo-1,2-dihydro-quinolin-3-yl]-acetic Acid] | 100% | 114% | 96.5% | 207 to 212 °C (dec.) |  |  |  | remaining activity at 20 µM [2]: 86.2% |
| CCN1C(=O)C(CC(=O)O)Cc2ccc(OCCCNC(=N)N)cc21.O=C(O)C(F)(F)F (stereo not shown) [Example 158, [1-Ethyl-7-(3-guanidino-propoxy)-2-oxo-1,2,3,4-tetrahydro-quinolin-3-yl]-acetic Acid Trifluoroacetate] |  |  |  | 165 to 166 °C |  |  |  | inhibition at 216 µM [3]: 13% |
| N=C(N)NCCCCOc1ccc2c(c1)NC(=O)C(CCC(=O)O)C2 (stereo not shown) [Example 232, 3-[7-(4-Guanidino-butoxy)-2-oxo-1,2,3,4-tetrahydro-quinolin-3-yl]-propionic Acid] | 75.3% | 97% |  | 176 to 177 °C |  |  | 155 µM | inhibition at 216 µM [3]: -70% |
| Cl.N=C(N)NCCCCOc1ccc2cc(CC(=O)O)c(=O)[nH]c2c1 [Example 184, [7-(4-Guanidino-butoxy)-2-oxo-1,2-dihydro-quinolin-3-yl]-acetic Acid Hydrochloride] | 67.5% | 85% | 85.5% | 216.5 to 219 °C |  |  |  | remaining activity at 20 µM [2]: 108%; inhibition at 271 µM ([3]; @ 271 μM): 37% |
| N=C(N)NCCCCc1ccc2c(c1)NC(=O)C(CC(=O)O)C2.O=C(O)C(F)(F)F (stereo not shown) [Example 121, [7-(4-Guanidino-butyl)-2-oxo-1,2,3,4-tetrahydro-quinolin-3-yl]-acetic Acid Trifluoroacetate] |  |  | 62% | 157 to 160 °C | 2.6 µM | 15.1 µM |  | inhibition at 228 µM ([3]; @ 228 μM): 30% |
| Cl.N=C(N)NCCC#Cc1ccc2c(c1)NC(=O)C(CC(=O)O)C2 (stereo not shown) [Example 100, [7-(4-Guanidino-but-1-ynyl)-2-oxo-1,2,3,4-tetrahydro-quinolin-3-yl]-acetic Acid Hydrochloride] |  |  |  | 130 to 180 °C |  | 79 µM | 216 µM | remaining activity at 100 µM ([1]; @ 100 μM, % Max = percentage of the specific binding, read-out: (αVβ3) RECEPTOR BINDING, % @ concentration): 30.9%; inhibition at 264 µM ([3]; @ 264 μM): 38% |
| N=C(N)NCCCC=Cc1ccc2c(c1)NC(=O)C(CC(=O)O)C2.O=C(O)C(F)(F)F (stereo not shown) [Example 113, [7-(5-Guanidino-pent-1-enyl)-2-oxo-1,2,3,4-tetrahydro-quinolin-3-yl]-acetic Acid Trifluoroacetate] |  |  | 77.1% | 162 to 165 °C | 4 µM | 17.8 µM |  |  |
| N=C(N)NCCCOc1ccc2c(c1)CCCC(CC(=O)O)C2.O=C(O)C(F)(F)F (stereo not shown) [Example 62, [2-(3-Guanidino-propoxy)-6,7,8,9-tetrahydro-5H-benzocyclohepten-6-yl]-acetic Acid Trifluoroacetate] |  |  |  | 109 to 114 °C | 1.4 µM | 14 µM | 169 µM |  |
| N=C(N)NCCCOc1ccc2c(c1)NC(=O)C(CCC(=O)O)C2 (stereo not shown) [Example 231, 3-[7-(3-Guanidino-propoxy)-2-oxo-1,2,3,4-tetrahydro-quinolin-3-yl]-propionic Acid] | 55.9% | 93% | 78.3% | 157 to 159 °C |  |  |  |  |
| N=C(N)NCCOc1ccc2c(c1)NC(=O)C(CCC(=O)O)C2 (stereo not shown) [Example 230, 3-[7-(2-Guanidino-ethoxy)-2-oxo-1,2,3,4-tetrahydro-quinolin-3-yl]-propionic Acid] |  | 100% | 95.2% | 193 to 196 °C |  |  |  | inhibition at 230 µM [3]: 15% |
| N=C(N)NCCC=Cc1ccc2c(c1)NC(=O)C(CC(=O)O)C2.O=C(O)C(F)(F)F (stereo not shown) [Example 112, [7-(4-Guanidino-but-1-enyl)-2-oxo-1,2,3,4-tetrahydro-quinolin-3-yl]-acetic Acid Trifluoroacetate] |  |  | 80.4% | 173 to 176 °C | 7 µM | 19.7 µM |  |  |
| N=C(N)NCCOc1ccc2cc(CCC(=O)O)c(=O)[nH]c2c1.O=[N+]([O-])O [Example 247, 3-[7-(2-Guanidino-ethoxy)-2-oxo-1,2-dihydro-quinolin-3-yl]-propionic Acid Nitric Acid Salt] |  |  | 100% | 211 °C (dec.) |  |  |  |  |
| CCn1c(=O)c(CC(=O)O)cc2ccc(OCCCNC(=N)N)cc21.O=C(O)C(F)(F)F [Example 149, [1-Ethyl-7-(3-guanidino-propoxy)-2-oxo-1,2-dihydro-quinolin-3-yl]-acetic Acid Trifluoroacetate] |  | 71.5% | 90.2% | 131 °C |  |  |  | remaining activity at 20 µM [2]: 96.3% |
